Reference: the supplement of paper PMC6045584
± gives the standard deviation of the averaged measurements.

Columns and labels:
ERLOTINIB = compound: C#Cc1cccc(Nc2ncnc3cc(OCCOC)c(OCCOC)cc23)c1 [ERLOTINIB]; test: surviving fraction relative to DMSO-only wells; higher = less growth inhibition; conditions: exposure time: 5 days
Summary of the method: (§1)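 In 384-well plates, 250–500 log-phase tumour cells per well were given 24 hours before five days of continuous exposure to inhibitors at 0.5, 1, 5, 10, 50, 100, 500 and 1000 nM. Surviving fraction is luminescence from CellTiter-Glo, normalised to the median of wells containing DMSO alone. Reading took place after 10 minutes at room temperature.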

VINORELBINE = compound: CCC1=C[C@@H]2CN(C1)Cc1c([nH]c3ccccc13)[C@@](C(=O)OC)(c1cc3c(cc1OC)N(C)[C@H]1[C@@](O)(C(=O)OC)[C@H](OC(C)=O)[C@]4(CC)C=CCN5CC[C@]31[C@@H]54)C2 [VINORELBINE]; test: as above; conditions: exposure time: 5 days
Summary of the method: as §1

Row | Test System | surviving fraction (ERLOTINIB; 0.5 nM) | surviving fraction (ERLOTINIB; 1 nM) | surviving fraction (ERLOTINIB; 5 nM) | surviving fraction (ERLOTINIB; 10 nM) | surviving fraction (ERLOTINIB; 50 nM) | surviving fraction (ERLOTINIB; 100 nM) | surviving fraction (ERLOTINIB; 500 nM) | surviving fraction (ERLOTINIB; 1000 nM) | surviving fraction (VINORELBINE; 0.5 nM) | surviving fraction (VINORELBINE; 1 nM) | surviving fraction (VINORELBINE; 5 nM) | surviving fraction (VINORELBINE; 10 nM) | surviving fraction (VINORELBINE; 50 nM) | surviving fraction (VINORELBINE; 100 nM) | surviving fraction (VINORELBINE; 500 nM) | surviving fraction (VINORELBINE; 1000 nM)
1 | MDAMB231 BREAST | 1.01 ± 0.028 | 0.997 ± 0.013 | 1.02 ± 0.019 | 1.02 ± 0.011 | 1.04 ± 0.019 | 1.06 ± 0.027 | 1.06 ± 0.028 | 1.03 ± 0.029 | 0.976 ± 0.035 | 0.998 ± 0.02 | 0.904 ± 0.027 | 0.681 ± 0.027 | 0.238 ± 0.008 | 0.244 ± 0.0099 | 0.189 ± 0.0019 | 0.172 ± 0.009
2 | MDAMB361 BREAST | 0.873 ± 0.095 | 0.849 ± 0.05 | 0.83 ± 0.037 | 0.869 ± 0.011 | – | – | 0.913 ± 0.091 | 0.827 ± 0.033 | 0.791 ± 0.062 | 0.786 ± 0.076 | 0.695 ± 0.056 | 0.603 ± 0.016 | 0.607 ± 0.03 | 0.566 ± 0.04 | 0.5787 ± 0.0021 | 0.502 ± 0.058
3 | MDAMB436 BREAST | 0.987 ± 0.03 | 1.08 ± 0.073 | 1.07 ± 0.091 | 1.05 ± 0.15 | 1.05 ± 0.14 | 0.941 ± 0.049 | 0.932 ± 0.066 | 0.811 ± 0.045 | 0.9 ± 0.064 | 0.88 ± 0.045 | 0.796 ± 0.12 | 0.742 ± 0.038 | 0.591 ± 0.032 | 0.51 ± 0.033 | 0.211 ± 0.013 | 0.221 ± 0.018
4 | MDAMB453 BREAST | 1.11 ± 0.065 | 1.05 ± 0.029 | 1.11 ± 0.057 | 1.088 ± 0.0092 | 1.09 ± 0.065 | 1.06 ± 0.022 | – | 1.01 ± 0.026 | 1.04 ± 0.049 | 1.029 ± 0.004 | 0.387 ± 0.038 | 0.244 ± 0.022 | 0.16 ± 0.034 | 0.116 ± 0.018 | 0.176 ± 0.044 | 0.25 ± 0.048
5 | MDAMB468 BREAST | 1.06 ± 0.052 | 0.995 ± 0.038 | 1.14 ± 0.072 | 1.05 ± 0.035 | 1.15 ± 0.12 | 1.105 ± 0.011 | 0.902 ± 0.06 | 0.748 ± 0.04 | 1.02 ± 0.065 | 0.929 ± 0.019 | 0.645 ± 0.025 | 0.379 ± 0.041 | 0.0613 ± 0.007 | 0.0593 ± 0.005 | 0.117 ± 0.016 | 0.177 ± 0.0095
6 | MFM223 BREAST | 1.44 ± 0.48 | 1.5 ± 0.64 | 1.49 ± 0.59 | 1.48 ± 0.48 | 1.16 ± 0.13 | 1.2 ± 0.039 | 1.22 ± 0.052 | 1.16 ± 0.033 | 1.13 ± 0.1 | 1.05 ± 0.066 | 0.905 ± 0.094 | 0.512 ± 0.01 | 0.0818 ± 0.0055 | 0.0723 ± 0.011 | 0.0547 ± 0.00076 | 0.0517 ± 0.0023
7 | MG63 BONE | – | 1.08 ± 0.041 | 1.12 ± 0.014 | 1.1 ± 0.019 | 1.14 ± 0.045 | 1.1 ± 0.047 | 1.07 ± 0.066 | – | 1.02 ± 0.025 | 1 ± 0.043 | 1.06 ± 0.02 | 1 ± 0.023 | 0.07 ± 0.0095 | 0.0503 ± 0.014 | 0.0683 ± 0.0071 | 0.065 ± 0.0046
8 | MHM BONE | 1.02 ± 0.036 | 1.03 ± 0.035 | – | – | 1.04 ± 0.016 | 1.064 ± 0.001 | 1.038 ± 0.01 | 0.998 ± 0.03 | 1.01 ± 0.029 | 0.988 ± 0.029 | 1.022 ± 0.0092 | 1 ± 0.02 | 0.493 ± 0.025 | 0.325 ± 0.029 | 0.22 ± 0.013 | 0.195 ± 0.014
9 | NCIH441 LUNG | 1.2 ± 0.086 | 1.16 ± 0.14 | 1.09 ± 0.083 | 1.08 ± 0.12 | 1.08 ± 0.067 | 1.11 ± 0.1 | 0.992 ± 0.086 | 1.17 ± 0.12 | 1.13 ± 0.13 | 1.11 ± 0.059 | 1.02 ± 0.072 | 0.877 ± 0.029 | 0.4817 ± 0.0045 | 0.422 ± 0.041 | 0.497 ± 0.054 | 0.423 ± 0.044
10 | NOS1 BONE | 1.22 ± 0.035 | – | 1.24 ± 0.15 | 1.18 ± 0.075 | 1.33 ± 0.045 | 1.14 ± 0.094 | 0.827 ± 0.16 | 0.561 ± 0.011 | 0.987 ± 0.04 | 1.1 ± 0.081 | 0.978 ± 0.024 | 0.805 ± 0.024 | 0.287 ± 0.047 | 0.263 ± 0.035 | 0.195 ± 0.017 | 0.188 ± 0.016
11 | NY BONE | 1.01 ± 0.019 | 0.963 ± 0.029 | – | 1.05 ± 0.037 | – | – | 0.983 ± 0.01 | – | 0.994 ± 0.019 | 0.964 ± 0.026 | 0.924 ± 0.075 | 0.437 ± 0.016 | 0.0393 ± 0.0031 | 0.035 ± 0.006 | 0.0417 ± 0.0074 | 0.0433 ± 0.0075
12 | OS25HAL BONE | 0.997 ± 0.016 | 1.04 ± 0.048 | 1.02 ± 0.024 | – | 1.09 ± 0.063 | 1.17 ± 0.043 | 1.09 ± 0.027 | 1 ± 0.035 | 0.97 ± 0.046 | 0.985 ± 0.021 | 1.02 ± 0.024 | 0.912 ± 0.052 | 0.202 ± 0.02 | 0.0833 ± 0.0083 | 0.0677 ± 0.011 | 0.057 ± 0.007
13 | OSHN BONE | 1.07 ± 0.029 | 1.1 ± 0.016 | 1.1 ± 0.026 | 1.07 ± 0.029 | – | 1.163 ± 0.0072 | 1.161 ± 0.001 | 1.1173 ± 0.0011 | 1.07 ± 0.022 | 1.048 ± 0.0086 | 1.09 ± 0.021 | 1.04 ± 0.021 | 0.0367 ± 0.0021 | 0.025 ± 0.001 | 0.026 | 0.0293 ± 0.00058
14 | PCI30 HEADNECK | 1.05 ± 0.12 | – | 1.12 ± 0.066 | 1.07 ± 0.078 | – | 0.951 ± 0.1 | 0.538 ± 0.036 | 0.508 ± 0.029 | 0.994 ± 0.024 | 1.05 ± 0.02 | 0.463 ± 0.054 | 0.228 ± 0.017 | 0.078 ± 0.003 | 0.0933 ± 0.022 | 0.113 ± 0.025 | 0.147 ± 0.025
15 | RDES SOFT TISSUE | 1.21 ± 0.057 | 1.28 ± 0.14 | 1.12 ± 0.18 | 1.27 ± 0.015 | – | 1.28 ± 0.1 | 1.24 ± 0.025 | 1.32 ± 0.1 | 1.23 ± 0.18 | 1.15 ± 0.28 | 1.19 ± 0.18 | 1.24 ± 0.39 | 0.0793 ± 0.0093 | 0.071 ± 0.011 | 0.039 ± 0.0036 | 0.039 ± 0.005
16 | S68 BREAST | 1.05 ± 0.32 | 1.07 ± 0.37 | 0.808 ± 0.13 | 1.15 ± 0.036 | 1.14 ± 0.25 | 1.11 ± 0.3 | 0.743 ± 0.079 | 0.564 ± 0.03 | 1.12 ± 0.4 | 0.785 ± 0.22 | 0.995 ± 0.23 | 0.572 ± 0.26 | 0.155 ± 0.034 | 0.143 ± 0.013 | 0.0783 ± 0.015 | 0.0627 ± 0.0081
17 | SAOS2 BONE | 1.22 ± 0.066 | 1.2 ± 0.044 | 1.18 ± 0.095 | 1.24 ± 0.035 | 1.26 ± 0.12 | 1.23 ± 0.051 | 1.09 ± 0.094 | 1.05 ± 0.075 | 1.12 ± 0.014 | 1.18 ± 0.066 | 1.07 ± 0.06 | 0.812 ± 0.038 | 0.155 ± 0.0063 | 0.0997 ± 0.0029 | 0.11 ± 0.0081 | 0.104 ± 0.032
18 | SCC36 HEADNECK | – | 0.929 ± 0.089 | 1.06 ± 0.032 | 1.07 ± 0.057 | – | 0.82 ± 0.033 | 0.548 ± 0.059 | 0.397 ± 0.038 | 1.09 ± 0.15 | 0.927 ± 0.057 | 1.09 ± 0.093 | 0.819 ± 0.059 | 0.161 ± 0.0035 | 0.135 ± 0.026 | 0.0993 ± 0.011 | 0.1 ± 0.024
19 | SCC47 HEADNECK | 1.13 ± 0.079 | 1.11 ± 0.015 | 1.231 ± 0.0078 | 1.17 ± 0.092 | 1.15 ± 0.051 | 1.07 ± 0.021 | 0.822 ± 0.052 | 0.724 ± 0.037 | 1.09 ± 0.13 | 1.06 ± 0.013 | 0.967 ± 0.055 | 0.693 ± 0.044 | 0.231 ± 0.023 | 0.1977 ± 0.0011 | 0.302 ± 0.022 | 0.289 ± 0.0068
20 | SCC90 HEADNECK | 1.1 ± 0.091 | 1.1 ± 0.011 | 1.13 ± 0.038 | 1 ± 0.036 | 0.94 ± 0.11 | 0.82 ± 0.086 | 0.585 ± 0.049 | 0.534 ± 0.057 | 1.04 ± 0.072 | 1.04 ± 0.06 | 1.01 ± 0.12 | 0.616 ± 0.066 | 0.126 ± 0.0029 | 0.099 ± 0.0066 | 0.097 ± 0.01 | 0.106 ± 0.015
21 | SG27 HEADNECK | 1 ± 0.036 | 0.979 ± 0.051 | 1.08 ± 0.062 | 1.06 ± 0.16 | 1.2 ± 0.082 | 1.1 ± 0.052 | 1.1 ± 0.037 | 1.1 ± 0.065 | 1.17 ± 0.16 | 1.09 ± 0.096 | 1.13 ± 0.12 | 1.08 ± 0.15 | 1.03 ± 0.1 | 1.15 ± 0.018 | 1.26 ± 0.08 | 1.33 ± 0.27
